From patent publication US8293769B2, “CSF-1R inhibitors, compositions, and methods of use” (Novartis AG, priority 2008, dated 2012)

Assays:
PDGFRb = target: T1, PDGFRb (Homo sapiens, UniProt P09619); assay: PDGFRb kinase in vitro biochemical assay (alphascreen); settings: tested at about 1 μM; read-out: PDGF RK BETA percent inhibition
T1 construct: The kinase domain of PDGFRβ was assayed in 50 mM Hepes; purchased Invitrogen P3082
Description: (§1) The IC50 values for the inhibition of RTKs were determined in the alphascreen format measuring the inhibition by compound of phosphate transfer to a substrate by the respective enzyme. Briefly, the respective RTK domain purchased as human recombinant protein (cKIT Upstate #14-559, PDGFRb Invitrogen #P3082) were incubated with serial dilutions of compound in the presence of substrate and ATP concentrations within 3 times the Km of the enzyme.
(§2) The kinase domain of cKIT was assayed in 50 mM Hepes, pH=7.5, 5 mM MgCl2, 10 mM MnCl2, 1 mM DTT, 0.1% BSA with 0.06 uM biotinylated peptide substrate (GGLFDDPSYVNVQNL-NH2) and 15 uM ATP (ATP KM apparent=15 uM). The kinase domain of PDGFRβ was assayed in 50 mM Hepes, pH=7.5, 20 mM MgCl2, 1 mM DTT, 0.1% BSA with 0.1 uM biotinylated peptide substrate (GGLFDDPSYVNVQNL-NH2) and 10 uM ATP (ATP KM apparent=25 uM). Reactions were incubated at room temperature for 3 to 4 hr and stopped with buffer (20 mM EDTA, 0.01% Tween-20 for both PDGFRb and cKIT). Alphascreen PY20 beads were added to the stopped cKIT reactions and PY20 Ab/Protein A Alphascreen beads were added to the PDGFRβ stopped reactions. Both reactions were incubated overnight and read on the Alphascreen reader. The concentration of compound for 50% inhibition (IC50) was calculated employing non-linear regression using XL-Fit data analysis software. As a control compound, staurosporine is run in every assay and a Z′>0.5 is required to validate results.

[1] = target: T2, cytoplasmic domain of the human CSF-1R (Homo sapiens, UniProt P07333); assay: In vitro kinase assay for CSF-1R (AlphaScreen); type: biochemical; settings: tested at about 1 μM; read-out: CSF1RK 1 percent inhibition
T2 construct: Recombinant protein corresponding to the cytoplasmic domain of the human CSF-1R; purchased Invitrogen Corporation, Carlsbad, Calif; PV3249
T2 sequence (P07333 539-972 limits assumed): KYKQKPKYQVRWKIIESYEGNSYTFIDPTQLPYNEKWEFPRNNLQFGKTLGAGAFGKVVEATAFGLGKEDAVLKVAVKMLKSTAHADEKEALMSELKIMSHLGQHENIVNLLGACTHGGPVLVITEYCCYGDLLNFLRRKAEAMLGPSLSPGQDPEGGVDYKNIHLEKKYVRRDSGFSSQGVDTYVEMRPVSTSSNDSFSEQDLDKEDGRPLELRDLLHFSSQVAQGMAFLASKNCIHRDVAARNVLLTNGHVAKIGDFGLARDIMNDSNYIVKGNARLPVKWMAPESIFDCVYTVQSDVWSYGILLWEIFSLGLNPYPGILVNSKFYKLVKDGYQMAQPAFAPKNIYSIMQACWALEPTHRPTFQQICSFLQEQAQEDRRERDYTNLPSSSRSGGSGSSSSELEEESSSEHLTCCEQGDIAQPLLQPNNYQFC
Description: The kinase activity of various protein tyrosine kinases can be measured by providing ATP and a suitable peptide or protein tyrosine-containing substrate, and assaying the transfer of phosphate moiety to the tyrosine residue. Recombinant protein corresponding to the cytoplasmic domain of the human CSF-1R was purchased from Invitrogen Corporation, Carlsbad, Calif. U.S.A. (#PV3249). For each assay, test compounds were serially diluted, starting at 25 μM with 3 fold dilutions, in DMSO in 384 well plates then mixed with an appropriate kinase reaction buffer consisting of 50 mM Hepes, 5 mM MgCl2, 10 mM MnCl2, 0.1% BSA, pH 7.5, 1.0 mM dithiothreitol, 0.01% Tween 80 plus 1 μM ATP. Kinase protein and an appropriate biotinylated peptide substrate at 50 nM were added to give a final volume of 20 μL, reactions were incubated for 2 hours at room temperature and stopped by the addition of 10 μL of 45 mM EDTA, 50 mM Hepes pH 7.5. Added to the stopped reaction mix was 30 μL of PT66 Alphascreen beads (Perkin Elmer, Boston, Mass., U.S.A.). The reaction was incubated overnight and read on the Envision (Perkin Elmer). Phosphorylated peptide product was measured with the AlphaScreen system (Perkin Elmer) using acceptor beads coated with anti-phosphotyrosine antibody PT66 and donor beads coated with streptavidin that emit a fluorescent signal at the 520-620 nm emission wave length if in close proximity. The concentration of each compound for 50% inhibition (IC50) was calculated by non-linear regression using XL Fit data analysis software.
CSF-1R kinase was assayed in 50 mM Hepes pH 7.0, 5 mM MgCl2, 10 mM MnCl2, 1 mM DTT, 1 mg/mL BSA, 1.0 μM ATP, and 0.05 μM biotin-GGGGRPRAATF-NH2 (SEQ ID NO:1) peptide substrate. CSF-1R kinase was added at final concentration of 4 nM.

[2] = tested on: MNFS60 (murine AML cells); assay: Cell viability assay in MCSF dependent MNFS60 cells (Cell Titer Glo); type: cell-based; settings: Mus musculus; tested at about 1 μM; MCSF 10 ng/mL, 72 hrs; read-out: CPEC50 MNFS60MCSF percent inhibition
Description: Cell viability was assessed by Cell Titer Glo, Promega. MNFS60 (murine AML cells) were seeded in TC treated 96-well plates at a density of 5,000 cells per well in RPMI-1640, 10% FBS, and 1% Penicillin Streptomycin prior to addition of compound. Test compounds were serially diluted (3 fold) in DMSO to 500× the final concentration. For each concentration of test compound, 2 μl (500×) aliquots of compound or 100% DMSO (control) were diluted in 500 μl of culture medium that contained 2× final concentration of growth factor MCSF for 2× concentration and then diluted 1× on the cells. Final concentration of MCSF is 10 ng/mL. Cells were incubated for 72 hrs at 37° C., 5% CO2. After the incubation 100 μl Cell Titer Glo is added to each well to determine viable cells. The assay was performed according to the manufacturer's instruction (Promega Corporation, Madison, Wis. USA). Each experimental condition was performed in triplicate. Raw data was imported in Abase and EC50s calculated with XL-fit data analysis software: Relative light units of wells that contained cells without MCSF in the media and as a consequence didn't grow were defined as 100% inhibited.

cKIT = target: T3, cKIT (Homo sapiens, UniProt P10721); assay: cKIT kinase in vitro biochemical assay (alphascreen); settings: tested at about 1 μM; read-out: CKIT percent inhibition
T3 construct: The kinase domain of cKIT was assayed in 50 mM Hepes; purchased Upstate 14-559
Description: as §1, §2

T1 sequence (P09619 600-962 limits assumed): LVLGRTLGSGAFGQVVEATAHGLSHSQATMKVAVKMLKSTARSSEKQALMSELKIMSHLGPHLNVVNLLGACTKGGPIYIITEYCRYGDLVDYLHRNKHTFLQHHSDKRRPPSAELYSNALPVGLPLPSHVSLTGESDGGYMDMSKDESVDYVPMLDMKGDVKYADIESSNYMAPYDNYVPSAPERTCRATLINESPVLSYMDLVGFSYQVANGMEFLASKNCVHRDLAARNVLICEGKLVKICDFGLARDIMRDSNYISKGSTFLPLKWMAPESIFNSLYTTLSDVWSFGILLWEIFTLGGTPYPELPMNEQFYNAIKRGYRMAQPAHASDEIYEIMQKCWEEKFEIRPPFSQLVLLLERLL
T3 sequence (P10721 589-937 limits assumed): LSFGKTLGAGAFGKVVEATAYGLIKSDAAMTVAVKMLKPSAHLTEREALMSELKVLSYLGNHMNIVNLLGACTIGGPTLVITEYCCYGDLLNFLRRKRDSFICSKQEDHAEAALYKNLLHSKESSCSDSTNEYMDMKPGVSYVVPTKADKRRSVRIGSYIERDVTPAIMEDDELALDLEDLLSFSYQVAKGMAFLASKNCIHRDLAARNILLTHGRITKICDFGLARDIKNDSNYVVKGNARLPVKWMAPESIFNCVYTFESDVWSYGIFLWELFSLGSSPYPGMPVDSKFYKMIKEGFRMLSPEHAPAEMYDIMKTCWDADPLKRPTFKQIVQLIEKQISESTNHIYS

| inhibition at 1 µM (PDGFRb) [%] | inhibition at 1 µM [1] [%] | inhibition at 1 µM (cKIT) [%] | SMILES | inhibition at 1 µM [2] [%] |
| --- | --- | --- | --- | --- |
| 19 | 99 | 14 | Cn1ncc2c(Oc3ccc4nc(NCC5CCCCC5)sc4c3)ncnc21 [Compound 44, N-(cyclohexylmethyl)-6-(1-methyl-1H-pyrazolo[3,4-d]pyrimidin-4-yloxy)benzo[d]thiazol-2-amine] | 0 |
| 14 | 97 | 32 | CNC(=O)c1cncc(Oc2ccc3nc(N[C@@H](C)C4CCCCC4)sc3c2)n1 [Compound 51, (S)-6-(2-(1-cyclohexylethylamino)benzo[d]thiazol-6-yloxy)-N-methylpyrazine-2-carboxamide] | 3 |
| 30 | 98 | 42 | CNc1cc(Oc2ccc3nc(NCC4CCCCC4)sc3c2)ncn1 [Compound 13, N-(cyclohexylmethyl)-6-(6-(methylamino)pyrimidin-4-yloxy)benzo[d]thiazol-2-amine] | 18 |
| 5 | 96 | 16 | CNC(=O)c1cc(Oc2ccc3nc(NCC4CCCCC4)sc3c2)nc(OC)n1 [Compound 10, 6-(2-(Cyclohexylmethylamino)benzo[d]thiazol-6-yloxy)-2-methoxy-n-methylpyrimidine-4-carboxamide] | 27 |
| 6 | 78 | 11 | Clc1cc(Oc2ccc3nc(NCC4CCCCC4)sc3c2)ncn1 [Compound 2, 6-(6-chloropyrimidin-4-yloxy)-N-(cyclohexylmethyl)benzo[d]thiazol-2-amine] |  |
| 35 | 89 | 22 | CC(=O)NCCNc1nccc(Oc2ccc3nc(NCC4CCCCC4)sc3c2)n1 [Compound 16, N-(2-(4-(2-(cyclohexylmethylamino)benzo[d]thiazol-6-yloxy)pyrimidin-2-ylamino)ethyl) acetamide] |  |

Continued, compound first:

| SMILES | inhibition at 1 µM (PDGFRb) [%] | inhibition at 1 µM [1] [%] | inhibition at 1 µM (cKIT) [%] | inhibition at 1 µM [2] [%] |
| --- | --- | --- | --- | --- |
| Cn1cc(-c2cc(Oc3ccc4nc(N[C@@H]5CCCC[C@H]5O)sc4c3)ncn2)cn1 [Compound 22, (1R,2R)-2-(6-(6-(1-methyl-1H-pyrazol-4-yl)pyrimidin-4-yloxy)benzo[d]thiazol-2-ylamino) cyclohexanol] | 11 | 100 | 29 | 100 |
| C[C@H](Nc1nc2ccc(Oc3ccnc(-c4ccc(N)nc4)n3)cc2s1)C1CCCCC1 [Compound 33, (S)-6-(2-(6-aminopyridin-3-yl)pyrimidin-4-yloxy)-N-(1-cyclohexylethyl) benzo[d]thiazol-2-amine] | 22 | 100 | 32 | 78 |
| CCN(CC)CCn1cc(-c2cncc(Oc3ccc4nc(N[C@@H]5CCCC[C@H]5O)sc4c3)c2)cn1 [Compound 81, (1R,2R)-2-(6-(5-(1-(2-(diethylamino)ethyl)-1H-pyrazol-4-yl)pyridin-3-yloxy)benzo[d]thiazol-2-ylamino)cyclohexanol] | 0 | 100 | 56 | 100 |
| CN1CCN(c2ccc(-c3cc(Oc4ccc5nc(N[C@@H]6CCCC[C@H]6O)sc5c4)cnc3Cl)cn2)CC1 [Compound 103, (1R,2R)-2-(6-(2-chloro-6′-(4-methylpiperazin-1-yl)-3,3′-bipyridin-5-yloxy)benzo[d]thiazol-2-ylamino)cyclohexanol] | 9 | 100 | 14 | 35 |
| C[C@H](Nc1nc2ccc(Oc3ccnc(-c4cnn(C)c4)n3)cc2s1)C1CCCCC1 [Compound 30, (S)-N-(1-cyclohexylethyl)-6-(2-(1-methyl-1H-pyrazol-4-yl)pyrimidin-4-yloxy)benzo[d] thiazol-2-amine] | 21 | 100 | 24 | 100 |
| Cn1cc(-c2cc(Oc3ccc4nc(N[C@@H]5CCCC[C@H]5O)sc4c3)cnc2Cl)cn1 [Compound 102, (1R,2R)-2-(6-(6-chloro-5-(1-methyl-1H-pyrazol-4-yl)pyridin-3-yloxy)benzo[d]thiazol-2-ylamino)cyclohexanol] | 7 | 86 | 11 |  |
| O[C@@H]1CCCC[C@H]1Nc1nc2ccc(Oc3cncc(-n4cncn4)n3)cc2s1 [Compound 42, (1R,2R)-2-(6-(6-(1H-1,2,4-triazol-1-yl)pyrazin-2-yloxy)benzo[d]thiazol-2-ylamino)cyclohexanol] | 10 | 51 | 9 |  |
| O[C@@H]1CCCC[C@H]1Nc1nc2ccc(Oc3cncc(-c4cnn(CCN5CCOCC5)c4)c3)cc2s1 [Compound 59, (1R,2R)-2-(6-(5-(1-(2-morpholinoethyl)-1H-pyrazol-4-yl)pyridin-3-yloxy)benzo[d]thiazol-2-ylamino)cyclohexanol] | 16 | 100 | 78 |  |
| O[C@@H]1CCCC[C@H]1Nc1nc2ccc(Oc3cncc(-c4cn[nH]c4)c3)cc2s1 [Compound 55, (1R,2R)-2-(6-(5-(1H-pyrazol-4-yl)pyridin-3-yloxy)benzo [d]thiazo-2-ylamino)cyclohexanol] | 19 | 100 | 84 |  |
| CNC(=O)c1ccc(Oc2ccc3nc(N[C@@H]4CCCC[C@H]4O)sc3c2)cn1 [Compound 54, 5-(2-((1R,2R)-2-hydroxycyclohexylamino)benzo[d]thiazol-6-yloxy)-N-methylpicolinamide] | 13 | 87 | 56 |  |
